Columns and labels:
Format in all cases: cell-based
insulin receptor [1] = test: 2-NBDG glucose uptake after inhibition of insulin receptor expression using siRNA; details: peptide 1 μM, 5 min; siRNA 10 nM or 30 nM vs no treatment; HaCaT cells; FIG. 6
Experimental: Based on the above test results, in order to evaluate whether, like insulin, the peptide of the present invention enhances glucose uptake through the insulin receptor, insulin receptor expression was inhibited using siRNA, after which 2-NBDG glucose uptake testing was performed. HaCaT cells (CLS 300493) were cultured in a DMEM serum medium until the cells reached 50-60% confluency, followed by transient transfection using the insulin receptor siRNA (Santa Cruz, Calif., USA) (no treatment, 10 nM treatment, or 30 nM treatment) and lipofectamine RNAiMAX (Invitrogen) in accordance with the manufacturer's protocol to thus inhibit insulin receptor expression, after which the cells were treated for 5 min using the peptide of SEQ ID NO: 3 at a concentration of 1 μM. A mixed solution of a 2-NBDG reagent and a glucose uptake enhancer was prepared in accordance with the manufacturer's protocol, after which the cells were treated therewith for 1 hr, washed with the supplied cold 1× analysis buffer, and observed using a confocal laser microscope (Olympus FluoView FW1000; Olympus, Tokyo, Japan).

[2] = tested on: glucose transporter (GLUT4); test: Translocation of glucose transporter to cell membrane by immunofluorescence; details: HaCaT cells; 0.001, 0.01 and 0.1 μM in serum-free DMEM, 5 min; FIG. 7
Experimental: In addition, the translocation of the glucose transporter to the cell membrane in HaCaT cells was evaluated through immunofluorescence analysis. Specifically, HaCaT cells (CLS 300493) were treated with the peptide of SEQ ID NO: 3 and Humulin R (positive control) at concentrations of 0.001, 0.01 and 0.1 μM in a serum-free DMEM medium for 5 min. The cells were washed with a PBS solution, treated with a GLUT4 antibody (Santa Cruz, Calif., USA) for 1 hr, treated with rhodamine red for 40 min, and observed using a confocal laser microscope (Olympus FluoView FW1000; Olympus, Tokyo, Japan).

insulin receptor [3] = test: Immunofluorescence analysis of endocytosis of FITC-conjugated peptide in HaCaT cells; details: FITC-conjugated peptide 1 μM, 5, 15, 30, 60 min tested, FIG. 2A
Experimental: In order to evaluate whether, like insulin, the peptide of the present invention induces endocytosis by binding to the insulin receptor, immunofluorescence analysis was performed. A fluorescent material (FITC) was conjugated to the peptide of SEQ ID NO: 3. HaCaT cells (CLS 300493) were pretreated in the same manner as in Test Example 1, added with the peptide solution of SEQ ID NO: 3 having the fluorescent material conjugated thereto such that the final concentration was 1 μM, and then treated for 5 min, 15 min, 30 min, and 60 min. The cells were washed three times with a PBS solution and then mounted onto a slide to give a test specimen, which was then observed using a confocal laser microscope (Olympus FluoView FW1000; Olympus, Tokyo, Japan). […] The insulin binds to the insulin receptor in the cells, followed by endocytosis (internalization) and then degradation.

HaCaT cells [4] = test: Cell migration test (Culture-Insert 2 Well); details: peptide 0.01, 0.1, 1 μM or Humulin R 1 μM for 5 min, observed after 10 hr and 13 hr, FIG. 3
Experimental: For cell migration testing, a Culture-Insert 2 Well (Ibidi™), having two separate culture spaces therein, was used. When cells are cultured on the above plate, the cells are attached to both sides, between which an empty space is formed, followed by removal of the insert well and further culturing, whereby the cells of the two sides migrate to the empty space of the plate. HaCaT cells (CLS 300493) were cultured on the above plate until the cells reached 90% confluency and then the insert well was removed, after which the cells were treated for 5 min with the peptide of SEQ ID NO: 3 (0.01 μM, 0.1 μM, 1 μM) or Humulin R (1 μM), and washed with PBS, after which the medium was replaced with a cell culture medium (DMEM serum medium). After 10 hr and 13 hr, cell migration was observed through a phase contrast microscope.

HaCaT cells [5] = test: 2-NBDG glucose uptake analysis; details: 0.001, 0.01, 0.1 μM in serum-free media, 5 min, FIG. 5
Experimental: 2-NBDG glucose, which is a fluorescent deoxyglucose analogue, is introduced into cells by a glucose transporter, like glucose, but accumulates without actual metabolism, and thus the extent of glucose uptake may be determined based on the accumulated amount of fluorescence. A 2-NBDG glucose uptake kit (Biovision) was used for 2-NBDG glucose uptake analysis. Specifically, 3×10^4 HaCaT cells (CLS 300493) were seeded in each well of a 24-well plate, cultured in a 5% CO2 incubator at 37° C. for 24 hr with a DMEM serum medium, washed with PBS, and treated with the peptide of SEQ ID NO: 3 and Humulin R such that the concentrations in serum-free media were 0.001 μM, 0.01 μM, and 0.1 μM, followed by incubation for 5 min. A mixed solution of a 2-NBDG reagent and a glucose uptake enhancer was prepared in accordance with the manufacturer's protocol, after which the cells were treated therewith for 1 hr, washed with the supplied cold 1× analysis buffer, and observed using a confocal laser microscope (Olympus FluoView FW1000; Olympus, Tokyo, Japan).

[6] = tested on: physical interaction between Grb2 and SOS1; test: Insulin-like activity: Grb2-SOS1 physical interaction by PLA (proximity ligation assay) in HaCaT cells; details: 1 μM, 5 min, Humulin R at same concentration, FIG. 1
Experimental: When the insulin signal is transmitted into cells, the physical interaction between Grb2 and SOS1 is increased. After treatment of the cells with the peptide of the present invention, the physical interaction between Grb2 and SOS1 was measured through PLA (proximity ligation assay) and thus insulin-like activity was evaluated. 4.5×10^4 HaCaT cells (CLS 300493) were seeded in a DMEM serum medium in each well of a 24-well microplate and cultured in a 5% CO2 incubator at 37° C. for 24 hr, after which the peptide solution of Example 2 was added such that the peptide concentration of SEQ ID NOS: 1 to 6 in the medium was 1 μM, followed by incubation for 5 min under the same conditions. As a positive control, Humulin R was treated at the same concentration. A control received no treatment. The cells of each well were washed with PBS, treated with 2% formaldehyde for 15 min to thus fix the same, and then treated with 0.1% TritonX-100 for 5 min to thus increase antibody permeability into the cells. […] The physical interactions of the Grb2 and SOS1 antibodies were quantified by measuring the PLA signals detected in individual cells using a confocal laser microscope (Olympus FluoView FW1000; Olympus, Tokyo, Japan).

insulin receptor [7] = test: RNA interference: endocytosis after insulin receptor siRNA transfection in HaCaT cells; details: FITC-conjugated peptide 1 μM, 5 min, siRNA 10 nM or 30 nM vs no treatment, FIG. 2B
Experimental: Based on the above test results, in order to determine whether the effect of the peptide of the present invention on endocytosis is mediated by the insulin receptor, RNA interference was analyzed. HaCaT cells (CLS 300493) were cultured in a DMEM serum medium until the cells reached 50-60% confluency, followed by transient transfection using the insulin receptor siRNA (Santa Cruz, Calif., USA) (no treatment, 10 nM treatment, or 30 nM treatment) and lipofectamine RNAiMAX (Invitrogen) in accordance with the manufacturer's protocol to thus inhibit the insulin receptor expression, after which the cells were treated for 5 min using the peptide of SEQ ID NO: 3 having the fluorescent material conjugated thereto at a concentration of 1 μM. The fluorescence intensity of each group was observed using a confocal laser microscope (Olympus FluoView FW1000; Olympus, Tokyo, Japan).

HaCaT cells [8] = test: Cell proliferation test (CCK-8); details: 0.1, 1 and 10 μM in serum-free media, 24, 48 and 72 hr, FIG. 4
Experimental: For cell proliferation testing, 5×10^3 HaCaT cells (CLS 300493) were seeded in each well of a 96-well plate, and then treated with a solution containing the peptide of SEQ ID NO: 3 (total volume: 90 μl) such that the concentrations in serum-free media were 0.1, 1 and 10 μM. Cell proliferation for 24, 48 and 72 hr was observed using a microplate reader (Versa Max, USA). For measurement, treatment was performed for 2 hr using 10 μl of a CCK-8 (cell counting kit-8) solution at the same time every day.

Sequence of insulin receptor (P06213 28-758 limits assumed): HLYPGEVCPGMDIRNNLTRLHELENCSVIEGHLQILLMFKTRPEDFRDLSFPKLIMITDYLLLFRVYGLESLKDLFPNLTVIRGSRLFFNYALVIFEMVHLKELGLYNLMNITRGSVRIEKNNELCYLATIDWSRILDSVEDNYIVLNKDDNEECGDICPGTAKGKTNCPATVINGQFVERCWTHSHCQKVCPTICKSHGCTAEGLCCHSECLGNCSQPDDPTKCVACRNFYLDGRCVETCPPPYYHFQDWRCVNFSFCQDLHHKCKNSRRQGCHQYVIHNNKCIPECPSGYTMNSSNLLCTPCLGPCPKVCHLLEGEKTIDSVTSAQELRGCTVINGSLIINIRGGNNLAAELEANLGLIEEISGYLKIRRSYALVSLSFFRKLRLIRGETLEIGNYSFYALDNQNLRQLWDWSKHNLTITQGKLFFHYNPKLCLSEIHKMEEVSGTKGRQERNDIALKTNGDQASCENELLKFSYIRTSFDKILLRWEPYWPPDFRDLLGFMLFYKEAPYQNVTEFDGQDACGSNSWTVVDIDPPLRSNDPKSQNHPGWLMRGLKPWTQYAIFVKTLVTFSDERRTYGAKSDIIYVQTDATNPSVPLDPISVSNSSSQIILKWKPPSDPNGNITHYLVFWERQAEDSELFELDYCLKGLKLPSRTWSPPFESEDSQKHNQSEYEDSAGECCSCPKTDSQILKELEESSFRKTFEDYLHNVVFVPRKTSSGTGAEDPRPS
Sequence of insulin receptor (P06213 763-1382 partner limits assumed): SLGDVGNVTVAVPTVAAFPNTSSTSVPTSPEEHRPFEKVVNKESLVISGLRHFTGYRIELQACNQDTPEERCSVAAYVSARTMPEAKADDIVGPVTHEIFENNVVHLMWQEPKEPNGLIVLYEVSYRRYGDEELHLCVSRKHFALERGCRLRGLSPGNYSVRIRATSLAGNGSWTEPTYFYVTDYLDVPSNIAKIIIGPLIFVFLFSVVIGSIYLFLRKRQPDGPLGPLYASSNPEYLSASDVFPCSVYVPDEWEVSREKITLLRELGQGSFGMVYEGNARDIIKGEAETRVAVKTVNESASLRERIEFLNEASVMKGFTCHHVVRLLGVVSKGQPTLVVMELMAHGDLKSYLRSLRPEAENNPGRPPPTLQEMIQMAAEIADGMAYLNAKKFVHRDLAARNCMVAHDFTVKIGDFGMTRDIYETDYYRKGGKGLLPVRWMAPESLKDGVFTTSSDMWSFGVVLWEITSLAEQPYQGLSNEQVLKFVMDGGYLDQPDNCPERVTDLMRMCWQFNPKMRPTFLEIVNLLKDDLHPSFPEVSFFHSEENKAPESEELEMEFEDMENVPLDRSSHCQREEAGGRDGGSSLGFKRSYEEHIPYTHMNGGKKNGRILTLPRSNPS

Row | Substance | Glucose uptake (2-NBDG) in group transiently transfected with insulin receptor siRNA (insulin receptor [1]) | Amount of glucose transporter (GLUT4) in the cell membrane [2] | Time after treatment at which highest endocytosis (fluorescence) was observed (insulin receptor [3]) | Cell migration (HaCaT cells [4]) | Glucose uptake (2-NBDG) (HaCaT cells [5]) | Grb2/SOS1 antibody interaction (PLA signals) compared to positive control Humulin R [6] | Incidence of endocytosis in group transiently transfected with insulin receptor siRNA (insulin receptor [7]) | Cell proliferation (HaCaT cells [8])
1 | Cys-Ser-Leu (CSL; Peptide fragment) [SEQ ID NO: 3] | reduced | increased in the cell membrane in a concentration-dependent manner | 5 min | increased in a concentration-dependent manner | increased in a concentration-dependent manner | significantly higher antibody interaction than the positive control | reduced | increased in a concentration-dependent manner
2 | Humulin R: recombinant insulin preparation (injection), used as positive control [reference compound] | – | increased in the cell membrane in a concentration-dependent manner | – | increased | increased in a concentration-dependent manner | – | – | –
